Experimental data from US10858322B2, “Process for preparing 1-isobutyryl-1′-((1-(4,4,4-trifluorobutyl)-4,5,6,7-tetrahydro-1H-benzo[D]imidazol-2-yl)methyl)spiro[azetidine-3,3′-indolin]-2′-one” (SHANDONG DANHONG PHARMACEUTICAL CO., LTD., priority 2015, dated 2020).
In brackets after ≈: the same amount, converted by molar mass. Blank lines part the entries; values can stand above or below the compound they belong to.

Key:
[1] = RSV long CPE assay, CC50 (in vitro toxicity); assay type: cell-based; conditions: human; Hep2 cells, 5 days, CCK-8 readout, n = 7
Description: (§1) RSV long CPE assay Experimental Purpose: The EC50 and CC50 values of anti-RSV respiratory syncytial virus compounds were detected by cytopathology. Experimental Materials: Cell Line: Hep2 Experimental Procedures and Methods: a) Cell Inoculation (Hep2 cell) 1) The cell culture medium was removed and washed with 10 mL of PBS; 2) The preheated trypsin was added to the cleaned culture flask and rotating the flask to allow the trypsin to uniformly cover the culture flask. And then sucked it into a 37° C., 5% CO2 incubator to digest. 3) Each T150 was suspended in 10 to 15 mL culture medium, 0.1 mL was taken and then diluted twice with trypan blue solution. […] The cells were centrifuged (300 rpm) and the cells were adhered to the wall and placed in a 37° C., 5% CO2 incubator overnight. b) Compound addition: 1) The compound dissolved in 100% DMSO was diluted in a half logarithm and added to the cell plate using an Echo liquid handler. To ensure that the final concentration of DMSO was 1%; [table] […] 2) CCK-8 (Dojindo-CK04-20, 6 μL/well) was added to 384 well plates with Multidrop® automatic dispenser. […] 4) The data were analyzed.

Hep2 cells = test: RSV long CPE assay, CC50 (in vitro toxicity); assay type: cell-based; conditions: conclusion from the CPE assay CC50
Description: as §1

[2] = system: RSV respiratory syncytial virus (Along strain); test: microbe, parasite or virus in culture; assay type: cell-based
Description: And then sucked it into a 37° C., 5% CO2 incubator to digest.
3) Each T150 was suspended in 10 to 15 mL culture medium, 0.1 mL was taken and then diluted twice with trypan blue solution.
2) CCK-8 (Dojindo-CK04-20, 6 μL/well) was added to 384 well plates with Multidrop® automatic dispenser.
4) The data were analyzed.

[3] = Approximate solubility test of crystal form A; assay type: physicochemical; conditions: thermodynamic from solid, room temperature (20 to 30° C.)
[4] = Solid physical stability of crystal form A under different temperature and humidity conditions; assay type: physicochemical; conditions: 10th day
Description: The X-Ray Powder Diffraction method is as follows: Instrument: Bruker D8 ADVANCE X-Ray diffractometer; Target: Cu: K-Alpha; Wavelength λ=1.54179 Å; Tube Voltage: 40 kV; Tube Current: 40 mA; Scanning scope: 4-40°; Sample Rotation speed: 15 rpm; Scanning speed: 10°/min. […] On the tenth day, all samples were removed and returned to room temperature. The appearance changes of samples were observed, and the crystal form of samples was detected by XRPD.

[5] = Stability experiment of crystal form A in different solvents (XRPD); assay type: physicochemical; conditions: 2 days
Description: The X-Ray Powder Diffraction method is as follows:
Instrument: Bruker D8 ADVANCE X-Ray diffractometer; Target: Cu: K-Alpha; Wavelength λ=1.54179 Å; Tube Voltage: 40 kV; Tube Current: 40 mA; Scanning scope: 4-40°; Sample Rotation speed: 15 rpm; Scanning speed: 10°/min.
The mixture was stirred at 40° C. If the compound was completely dissolved, the sample was allowed to cool to room temperature, and if the solid was precipitated, the mixture was continued to stir; and if the sample remained in solution, the solvent was naturally evaporated to remove. After all the suspensions were stirred for 2 days, the solids in all samples were collected and XRPD was used to detect the crystal form state.

[6] = 0 day (−20° C. Sealed Storage) (Control Sample)
[7] = 25° C./92.5% Relative Humidity (Open)
[8] = 60° C./75% Relative Humidity (Open)

EC50 ([2]; human respiratory syncytial virus, HEp-2, 120 h, Hep2 cells, RSV A long strain, 5 days, CCK-8 readout, n = 7, read-out: CPE assay EC50): 7 nM
Structure (SMILES): CC(C)C(=O)N1CC2(C1)C(=O)N(Cc1nc3c(n1CCCC(F)(F)F)CCCC3)c1ccccc12 [Compound of formula (I), 1-Isobutyryl-1′-((1-(4,4,4-trifluorobutyl)-4,5,6,7-tetrahydro-1H-benzo[d]imidazol-2-yl)methyl)spiro[azetidine-3,3′-indolin]-2′-one]
CC50 at 5 days [1]: > 100 µM
cytotoxicity (Hep2 cells): no cytotoxicity
activity in vitro compared with BMS433771 ([2]; conclusion from the CPE assay): better activity in vitro

solubility ([3]; acetone-water (1:2), aqueous with cosolvent or surfactant or cyclodextrin, Acetone-H2O (1:2)): < 2 mg/mL
solubility ([3]; acetonitrile-water (1:1), aqueous with cosolvent or surfactant or cyclodextrin, Acetonitrile-H2O (1:1)): 46 to 58 mg/mL (≈ 94.2 to 119 mM)
solubility ([3]; ethanol-water (1:1), aqueous with cosolvent or surfactant or cyclodextrin, Ethanol-H2O (1:1)): 2 to 2.7 mg/mL (≈ 4.09 to 5.53 mM)
solubility ([3]; ethanol-water (3:1), aqueous with cosolvent or surfactant or cyclodextrin, Ethanol-H2O (3:1)): 22 to 24.5 mg/mL (≈ 45 to 50.1 mM)
solubility ([3]; isopropanol-water (1:1), aqueous with cosolvent or surfactant or cyclodextrin, Isopropanol-H2O (1:1)): 2.5 to 3 mg/mL (≈ 5.12 to 6.14 mM)
solubility ([3]; methanol-water (1:1), aqueous with cosolvent or surfactant or cyclodextrin, Methanol-H2O (1:1)): < 2 mg/mL
solubility ([3]; methanol-water (3:1), aqueous with cosolvent or surfactant or cyclodextrin, Methanol-H2O (3:1)): 45 to 56.5 mg/mL (≈ 92.1 to 116 mM)
solubility ([3]; organic solvent or mixture, 2-Butanone): 56.9 to 75.8 mg/mL (≈ 116 to 155 mM)
solubility ([3]; organic solvent or mixture, 2-Methyltetrahydrofuran): 45 to 56.7 mg/mL (≈ 92.1 to 116 mM)
solubility ([3]; organic solvent or mixture, Acetone): 45.9 to 57.4 mg/mL (≈ 94 to 117 mM)
solubility ([3]; organic solvent or mixture, Acetonitrile): 42 to 53.6 mg/mL (≈ 86 to 110 mM)
solubility ([3]; organic solvent or mixture, Cyclohexane): < 2 mg/mL
solubility ([3]; organic solvent or mixture, Dioxane): 45 to 56.5 mg/mL (≈ 92.1 to 116 mM)
solubility ([3]; organic solvent or mixture, Ethanol): 42 to 52.5 mg/mL (≈ 86 to 107 mM)
solubility ([3]; organic solvent or mixture, Ethyl acetate): 29 to 34 mg/mL (≈ 59.4 to 69.6 mM)
solubility ([3]; organic solvent or mixture, Isopropanol): 13.9 to 20.9 mg/mL (≈ 28.5 to 42.8 mM)
solubility ([3]; organic solvent or mixture, Isopropyl acetate): 18 to 20.5 mg/mL (≈ 36.8 to 42 mM)
solubility ([3]; organic solvent or mixture, Methanol): 115 to 231 mg/mL (≈ 235 to 473 mM)
solubility ([3]; organic solvent or mixture, Methyl isobutyl ketone): 22.9 to 25.5 mg/mL (≈ 46.9 to 52.2 mM)
solubility ([3]; organic solvent or mixture, Methyl tert-butyl ether): 3 to 3.7 mg/mL (≈ 6.14 to 7.57 mM)
solubility ([3]; organic solvent or mixture, Tetrahydrofuran): 113 to 226 mg/mL (≈ 231 to 463 mM)
solubility ([3]; organic solvent or mixture, Toluene): 28 to 32.5 mg/mL (≈ 57.3 to 66.5 mM)
solubility ([3]; organic solvent or mixture, n-Butyl alcohol): 25.9 to 29.5 mg/mL (≈ 53 to 60.4 mM)
solubility ([3]; organic solvent or mixture, n-Heptane): < 2 mg/mL
solubility ([3]; water, H2O): < 2 mg/mL
Character [4, 6]: White Powder
Crystal Form [4, 6]: Crystal Form A
Character [4, 7]: White Powder
Crystal Form [4, 7]: Crystal Form A
Character ([4]; 60° C. (Open)): White Powder
Crystal Form ([4]; 60° C. (Open)): Crystal Form A
Character [4, 8]: White Powder
Crystal Form [4, 8]: Crystal Form A
Result (crystal form by XRPD) ([5]; 2-Methyltetrahydrofuran, stirred at 40° C.): Crystal Form A
Result (crystal form by XRPD) ([5]; Acetone, stirred at 40° C.): Crystal Form A
Result (crystal form by XRPD) ([5]; Acetone:water = 1:2, stirred at 40° C.): Crystal Form B
Result (crystal form by XRPD) ([5]; Dioxane, stirred at 40° C.): Crystal Form A
Result (crystal form by XRPD) ([5]; Ethanol, stirred at 40° C.): Crystal Form A
Result (crystal form by XRPD) ([5]; Ethanol:water = 3:1, stirred at 40° C.): Crystal Form B
Result (crystal form by XRPD) ([5]; Ethyl acetate, stirred at 40° C.): Crystal Form A
Result (crystal form by XRPD) ([5]; Methanol:water = 3:1, stirred at 40° C.): Crystal Form A
Result (crystal form by XRPD) ([5]; Toluene, stirred at 40° C.): Crystal Form A
Structure (SMILES): CC(C)C(=O)N1CC2(C1)C(=O)N(Cc1nc3c(n1CCCC(F)(F)F)CCCC3)c1ccccc12 [Crystal Form A, 1-Isobutyryl-1′-((1-(4,4,4-trifluorobutyl)-4,5,6,7-tetrahydro-1H-benzo[d]imidazol-2-yl)methyl)spiro[azetidine-3,3′-indolin]-2′-one]
